The results in this text go back to ChEMBL document CHEMBL6071176, “Development of Phloroglucinol-Linked Tris-Quaternary Ammonium Salt Antimicrobial Peptide Mimics with Low Cytotoxicity and Broad-Spectrum Antibacterial Activity” (J Med Chem, 2024).

For orientation: HC50 means the concentration that lyses half of the red blood cells. Read a high HC50 as weaker haemolysis. A word on the MIC: it is the smallest concentration in the dilution series that meets the test's criterion for growth inhibition. A word on the CC50: it is the concentration at which the toxic effect on the cells reaches its halfway point. The low end stands for harm at low concentration, the high end for better tolerance by the cells. In general, MIC50 refers to the lowest concentration that inhibits either 50% of growth or 50% of the strains tested, depending on the study. By MIC90 is commonly meant an inhibitory concentration at the 90% level, which refers to growth in some studies and to a panel of isolates in others.

Series [1] is described as follows: Toxicity in female SPF Kunming mouse assessed as pathological changes in spleen at 200 mg/kg/day, sc measured after 24 hrs by hematoxylin and eosin staining based assay. In kind it is organism-based. The following applies: in vivo.
Series [2] is described as follows: Toxicity in female SPF Kunming mouse assessed as change in MCV count at 20 mg/kg/day, ip measured after 24 hrs. The following applies: in vivo. In kind it is organism-based.
A further series deals with Cell membrane. Briefly: Induction of Cytoplasmic membrane depolarization in Staphylococcus aureus assessed as increase in fluorescence intensity measured at 6 times of MIC measured after 4 hrs by DiSC3(5) dye-based fluorescence assay. Type of series: subcellular.
A short description of series [3]: Hemolytic activity in sheep red blood cells measured after 1 hr incubation. In kind it is toxicity, cell-based, Ovis aries, Erythrocyte.
Series [4] concerns Staphylococcus aureus. The series can be described thus: Bactericidal activity against early exponential phase Staphylococcus aureus assessed as bacterial killing at 3 ug/ml incubated for 12 hrs by time-kill assay. Type of series: functional, organism-based. The following applies: dose 3.0 µg/ml.
In another series the test system is Escherichia coli. Briefly: Antimicrobial activity against Escherichia coli assessed as inhibition of growth incubated for 18 hrs by CLSI guidelines based assay. In kind it is functional.
For series [5], the system named is Staphylococcus aureus. Briefly: In vivo antibacterial activity against methicillin-resistant Staphylococcus aureus subcutaneously infected in SPF female Kunming mouse model assessed as reduction wound at 5 mg/kg/day injected into blister after 6 hrs of infection measured after 6 consecutive treatments. Type of series: functional.
Series [6] deals with Staphylococcus aureus. Briefly: Bactericidal activity against Staphylococcus aureus assessed as bacterial killing in presence of 50% plasma. Type of series: functional, organism-based.
A short description of series [7]: Cytotoxicity against human Gastric mucosal cells measured after 24 hrs by CCK-8 assay. Type of series: toxicity, cell-based, Gastric mucosal cell. In general terms: Formazan colour is commonly taken as a measure of viable cells.
The subject of series [8] is Staphylococcus aureus. Briefly: Down-regulation of aspartate/ornithine carbamoyltransferase in Staphylococcus aureus at 0.25 ug/ml and incubated for 4 hrs by Transcriptome analysis. In kind it is functional, organism-based. The following applies: dose 0.25 µg/ml.
Series [9] deals with Staphylococcus aureus. Briefly: Anti-biofilim activity against Staphylococcus aureus biofilm assessed bacterial survival rate at 32 ug/ml measured after 24 hrs incubation. In kind it is functional.
Series [10] has as its system Staphylococcus aureus. Briefly: Anti-bacterial activity against 100 times rifampicin induced persistent cells of Staphylococcus aureus assessed as reduction in persistent cells at 32 times of MIC. Type of series: functional.
The test system of series [11] is Staphylococcus aureus. The series can be described thus: Antibacterial activity against methicillin-resistant Staphylococcus aureus assessed as inhibition of bacterial growth incubated for 18 hrs by CLSI guidelines based assay. In kind it is functional.
Series [12] concerns Staphylococcus aureus. Briefly: Induction of morphological changes in Staphylococcus aureus assessed as wrinkled/cracked surface at 4 ug/ml incubated for 4 hrs by Scanning electron microscopy (SEM). The following applies: dose 4.0 µg/ml. In kind it is functional, organism-based.
The nature of series [13]: Toxicity in female SPF Kunming mouse assessed as change in UREA level at 20 mg/kg/day, ip measured after 24 hrs. In kind it is organism-based. The following applies: in vivo.
Series [14] relates to Staphylococcus aureus. The series can be described thus: Up-regulation of quorum sensing pathway genes in Staphylococcus aureus at 0.25 ug/ml and incubated for 4 hrs by Transcriptome analysis. In kind it is functional, organism-based. The following applies: dose 0.25 µg/ml.
The nature of series [15]: Selectivity index, ratio of HC50 for sheep red blood cells to MIC for Staphylococcus aureus. In kind it is toxicity, cell-based, RBC. The following applies: read-out: Selectivity Index.
The subject of series [16] is Staphylococcus aureus. Briefly: Anti-microbial activity against Staphylococcus aureus assessed as bacterial growth inhibition in presence of PE (exogenous bacterial cell membrane component) measured after 18 hrs. Type of series: functional, organism-based.
The next series deals with Enterococcus faecalis. The series can be described thus: Antimicrobial activity against Enterococcus faecalis assessed as inhibition of growth incubated for 18 hrs by CLSI guidelines based assay. Type of series: functional.
The nature of series [17]: Toxicity in female SPF Kunming mouse assessed as change in HCT count at 20 mg/kg/day, ip measured after 24 hrs. Type of series: organism-based. The following applies: in vivo.
In series [18] the test system is Staphylococcus aureus. Briefly: Anti-microbial activity against Staphylococcus aureus assessed as bacterial growth inhibition in presence of LPS (exogenous bacterial cell membrane component) measured after 18 hrs. In kind it is functional, organism-based.
The subject of series [19] is Staphylococcus aureus. Briefly: Down-regulation of N-terminal TPP binding domain in Staphylococcus aureus at 0.25 ug/ml and incubated for 4 hrs by Transcriptome analysis. In kind it is functional, organism-based. The following applies: dose 0.25 µg/ml.
Series [20] concerns Staphylococcus aureus. The series can be described thus: Induction of ROS level in Staphylococcus aureus assessed as increase in intracellular ROS level by measuring fold increase in fluorescent intensity at 0.5 ug/ml measured after 4.5 hrs by ROS-sensitive fluorescent probe DCF-DA staining based assay. Type of series: functional. The following applies: dose 0.5 µg/ml.

The source made the active and inactive calls. Where only a bound is given, the exact number is not on record here.

As for `CCCCCCCC[N+](C)(C)CCCCOc1cc(OCCCC[N+](C)(C)CCCCCCCC)cc(OCCCC[N+](C)(C)CCCCCCCC)c1.[Br-].[Br-].[Br-]`, the Activity result in series [1] is reported as “Non-Toxic”; in series [2], “Non-Toxic”; in the series on Staphylococcus aureus [5], 251188.6 CFU; in the series with Staphylococcus aureus [10], 5.7 log10CFU/ml; in series [13] it was “Non-Toxic”; in series [17] it was “Non-Toxic”. The result in the series on Cell membrane, with Staphylococcus aureus [4], in the series on Staphylococcus aureus [6], in the series on Staphylococcus aureus [8], with Staphylococcus aureus [12] and in the series on Staphylococcus aureus [14] was Active. Further, the outcome with Staphylococcus aureus [16] and with Staphylococcus aureus [19] was Active. Besides, the HC50 at 1 h in series [3] was > 1280 µg/mL. Further, the results for the minimum inhibitory concentration (MIC) with Escherichia coli and in the series on Enterococcus faecalis were 2 µg/mL and 1 µg/mL, respectively. Moreover, the CC50 at 24 h in [7] was < 153 µg/mL. This compound came in with a survival at 32 µg/mL with Staphylococcus aureus [9] of 0.002%. Besides, the MIC50 in the series with Staphylococcus aureus [11] is 1 µg/mL. In addition, the MIC90 in the series with Staphylococcus aureus [11] was ≥ 16 µg/mL. The selectivity ratio in series [15] was > 2560. Moreover, the outcome in the series on Staphylococcus aureus [18] was inactive. Besides, in the series with Staphylococcus aureus [20], the “fold change (FC)” value stood at 3.
